The results in this text go back to patent US6521653B2 (priority 1995, dated 2003).

In brackets after ≈: the same amount, converted by molar mass.

The test system of one assay is Phytophthora infestans. The assay can be described thus: whole plant or invertebrate. The assay is classed as in vivo. The settings on record: Phytophthora infestans, in Solanum lycopersicum, 72 h, read-out: Efficiency in %, based on the untreated control at an active compound concentration of 50 ppm.
With `Cc1noc(C)c1S(=O)(=O)n1nnc2ccccc21`, the pest or weed control at 50 ppm was determined as 97%. Take `Cc1oncc1S(=O)(=O)n1nnc2c(Br)cc(C(F)(F)F)cc21`: the pest or weed control at 50 ppm turned out to be 98%.

In the case of `Cc1onc(N)c1S(=O)(=O)n1nnc2cc3c(cc21)OC(F)(F)O3`, the pest or weed control at 50 ppm is 97%. Still for that read-out and setting: then `Cc1ccc2c(c1)nnn2S(=O)(=O)c1c(C)noc1C`, with 97%; and `Cc1noc(C)c1S(=O)(=O)n1nnc2cc([N+](=O)[O-])ccc21`, with 100%; and `Cc1noc(C)c1S(=O)(=O)n1nnc2cc(Cl)ccc21`, with 100%.

Turning to `Cc1onc(N)c1S(=O)(=O)n1nnc2cc(Cl)ccc21`, the pest or weed control at 50 ppm is 97%.

For the molecule `Cc1noc(C)c1S(=O)(=O)n1nnc2cc3c(cc21)OC(F)(F)C(F)(F)O3` [drawing 100], the pest or weed control at 50 ppm came out at 95%. Same read-out and setting: then `Cc1noc(C)c1S(=O)(=O)n1nnc2cc3c(cc21)OC(F)(F)O3` [drawing 101], with 99%. The same measure, in the same setting: to `Cc1noc(C)c1S(=O)(=O)n1nnc2c(Br)cc(C(F)(F)F)cc21` [drawing 102] belongs 89%; to `Cc1oncc1S(=O)(=O)n1nnc2cc3c(cc21)OC(F)(F)O3` [drawing 103], 100%.

The same assay, now with this note: tomato, protective spray, 100 ppm, evaluation 3 days after inoculation.
For `Cc1noc(C)c1S(=O)(=O)n1nnc2cc3c(cc21)OC(F)(F)C(F)(F)O3` [drawing 95], the “Efficiency in %, based on the untreated control at an active compound concentration of 100 ppm” value (from here on “Efficiency in %, based”) was 94%.

`Cc1noc(C)c1S(=O)(=O)n1nnc2cc3c(cc21)OC(F)(F)O3` [drawing 96]: the “Efficiency in %, based” value came to 94%.

`Cc1noc(C)c1S(=O)(=O)n1nnc2c(Br)cc(C(F)(F)F)cc21` [drawing 97]: the “Efficiency in %, based” value is 95%. `Cc1oncc1S(=O)(=O)n1nnc2cc3c(cc21)OC(F)(F)C(F)(F)O3` [drawing 98]: the “Efficiency in %, based” value was 94%.

Turning to `Cc1oncc1S(=O)(=O)n1nnc2cc3c(cc21)OC(F)(F)O3` [drawing 99], the “Efficiency in %, based” value was 99%.

The test system of another assay is Plasmopara viticola. The assay can be described thus: Plasmopara test (grapevines)/protective. Format: in vivo. The note with it: protective spray, evaluation 6 days after inoculation. As for the experimental part: Plasmopara Test (Grapevines)/Protective
Solvent: 4.7 parts by weight of acetone
Emulsifier: 0.3 parts by weight of alkylaryl polyglycol ether
To obtain an expedient preparation of active compound, 1 part by weight of active compound is mixed with the amounts of solvent and emulsifier cited and the concentrate is diluted with water to the desired concentration.
To test for protective activity, young plants are sprayed with the active compound preparation until dew moist. After the sprayed coating has dried on, the plants are inoculated with an aqueous spore suspension of Plasmopara viticola and then remain for 1 day in a moist chamber at 20 to 22° C. and 100% relative humidity. The plants are then set up for 5 days in a greenhouse at 21° C. and approximately 90% relative humidity. The plants are then moistened and placed in a moist chamber for 1 day.
The evaluation is performed 6 days after the inoculation. In the evaluation, 0% denotes an efficiency corresponding to that of the untreated control, while an efficiency of 100% denotes that no contamination is observed.
`Cc1noc(C)c1S(=O)(=O)n1nnc2cc3c(cc21)OC(F)(F)C(F)(F)O3` [drawing 111]: the “Efficiency in %, based” value is 100%. On the same count and under the same terms, then `Cc1noc(C)c1S(=O)(=O)n1nnc2cc3c(cc21)OC(F)(F)O3` [drawing 112], with 100%; and `Cc1oncc1S(=O)(=O)n1nnc2cc3c(cc21)OC(F)(F)C(F)(F)O3` [drawing 113], with 100%; and `Cc1oncc1S(=O)(=O)n1nnc2cc3c(cc21)OC(F)(F)O3` [drawing 114], with 100%.

The next assay relates to Penicillium brevicaule. The assay can be described thus: Material protection test (MIC on malt extract agar). Format: cell-based. The note with it: 336 h, two weeks at 28° C., 60 to 70% relative humidity, read-out: Minimal inhibitory concentration (MIC value) Penicillium brevicaule. As for the experimental part: (§1) active compounds of the invention are added at concentrations of 0.1 mg/l to 5000 mg/l to an agar prepared with malt extract. After the agar has solidified, it is infected with pure cultures of Penicillium brevicaule, Chaetomium globosum and Aspergillus niger. After storage for two weeks at 28° C. and 60 to 70% relative humidity, the minimal inhibitory concentration (MIC value) is determined. The MIC value characterizes the lowest concentration of active compound at which there is no growth of the microbial species used.
For `Cc1noc(C)c1C(=O)n1nnc2cc3c(cc21)OC(F)(F)C(F)(F)O3`, the MIC was found to be 200 µg/mL (≈ 537 µM).

For the molecule `Cc1oncc1S(=O)(=O)n1nnc2cc3c(cc21)OC(F)(F)C(F)(F)O3` [drawing 93], the MIC is 200 µg/mL (≈ 507 µM).

The subject of the next assay is Chaetomium globosum. The description is as above. Format: cell-based. The note with it: 336 h, two weeks at 28° C., 60 to 70% relative humidity, read-out: Minimal inhibitory concentration (MIC value) Chaetomium globosum. On the procedure: as §1
With `Cc1noc(C)c1C(=O)n1nnc2cc3c(cc21)OC(F)(F)C(F)(F)O3`, the MIC amounted to 100 µg/mL (≈ 269 µM). The same measure, in the same setting: then `Cc1oncc1S(=O)(=O)n1nnc2cc3c(cc21)OC(F)(F)C(F)(F)O3` [drawing 93], with 100 µg/mL (≈ 254 µM).

Another assay relates to Aspergillus niger. The assay is described as above. The assay is classed as cell-based. The note with it: 336 h, two weeks at 28° C., 60 to 70% relative humidity, read-out: Minimal inhibitory concentration (MIC value) Aspergillus niger. As for the experimental part: as §1
For the molecule `Cc1noc(C)c1C(=O)n1nnc2cc3c(cc21)OC(F)(F)C(F)(F)O3`, the MIC stood at 400 µg/mL (≈ 1070 µM). Still for that read-out and setting: to `Cc1oncc1S(=O)(=O)n1nnc2cc3c(cc21)OC(F)(F)C(F)(F)O3` [drawing 93] belongs 200 µg/mL (≈ 507 µM).
